The assay deals with THP-1 cells. Put plainly: THP-1 Soluble Protein Assay (LPS-stimulated; ELISA of TNF-a, TNF-R p75/80, TNF-R p55/60, IL-8). It counts as cell-based, human. The note with it: Homo sapiens. Background: In an ELISA, binding on a coated surface is turned into a signal by an enzyme label.
[1] abbreviates: THP-1, read-out: THP % inhibition @ 3 µM, 3 µM.
[2] abbreviates: THP-1, 3 µM, read-out: THP % Inhibition @ 3µM.

Structures can show the parent of a compound that is named as a salt. Where two headings read alike, the source gives them in different places.

Usually inhibition stands for the change of the read-out against control, counted positive when it falls. As for `CC#CCOc1ccc(S(=O)(=O)N2CCN(C)CC2C(=O)NO)cc1` (stereo not drawn) [Example 56, 1-(4-But-2-ynyloxy-benzenesulfonyl)-4-methyl-piperazine-2-carboxylic acid hydroxyamide hydrochloride], the inhibition at 3 µM under setting [1] worked out at 32%.

Take `CC#CCOc1ccc(S(=O)(=O)N(CC#CCN2CCN(C)CC2)C(C(=O)NO)C(C)C)cc1` (stereo not drawn) [Example 125, 2-{{[4-(2-Butynyloxy)phenyl]sulfonyl}[4-(4-methyl-1-piperazinyl)-2-butynyl]amino}-N-hydroxy-3-methylbutanamide]: under setting [1], the inhibition at 3 µM is 72%.

As for `CC#CCOc1ccc(S(=O)(=O)N2C[C@H](C)SC(C)(C)[C@@H]2C(=O)NO)cc1` [Example 272, (3S,6S)-4-{[4-(2-Butynyloxy)phenyl]sulfonyl}-N-hydroxy-2,2,6-trimethyl-3-thiomorpholinecarboxamide], the inhibition at 3 µM under setting [2] was determined as 92%.

For `CC#CCOc1ccc(S(=O)(=O)N(C)C(C(=O)NO)c2ccc(OCCCNS(C)(=O)=O)cc2)cc1` (stereo not drawn) [Example 197, 2-[{[4-(2-Butynyloxy)phenyl]sulfonyl}(methyl)amino]-N-hydroxy-2-(4-{3-[(methylsulfonyl)amino]propoxy}phenyl)acetamide], under setting [1], the inhibition at 3 µM came to 94%.

On to `CC1(C)SCCN(S(=O)(=O)c2ccc(OCC#CCCOC3CCCCO3)cc2)C1C(=O)NO` (stereo not drawn) [Example 243, N-Hydroxy-2,2-dimethyl-4-[(4-{[5-(tetrahydro-2H-pyran-2-yloxy)-2-pentynyl]oxy}phenyl)sulfonyl]-3-thiomorpholine carboxamide], for which the inhibition at 3 µM under setting [1] was determined as 52%.

As to `CC#CCOc1ccc(S(=O)(=O)N(C)C(C(=O)NO)c2ccc(OC)cc2)cc1` (stereo not drawn) [Example 178, 2-[{[4-(2-Butynyloxy)phenyl]sulfonyl}(methyl)amino]-N-hydroxy-2-(4-methoxyphenyl)acetamide], under setting [1], the inhibition at 3 µM is 91%.

On to `CC#CCOc1ccc(S(=O)(=O)N(C)C(C(=O)NO)C2CCCCC2)cc1` (stereo not drawn) [Example 115, 2-[(4-But-2-ynyloxy-benzenesulfonyl)-methyl-amino]-2-cyclohexyl-N-hydroxy-acetamide], for which the inhibition at 3 µM under setting [1] is 89%.

For the compound `CC#CCOc1ccc(S(=O)(=O)N2C[C@H](CC(=O)N(C)C)SC(C)(C)[C@@H]2C(=O)NO)cc1` [Example 281, (3S,6S)-4-{[4-(2-Butynyloxy)phenyl]sulfonyl}-6-[2-(dimethylamino)-2-oxoethyl]-N-hydroxy-2,2-dimethyl-3-thiomorpholinecarboxamide], the inhibition at 3 µM under setting [2] is 76%.

As to `CC1(C)SCCN(S(=O)(=O)c2ccc(OCC#CCCCO)cc2)C1C(=O)NO` (stereo not drawn) [Example 249, N-Hydroxy-4-({4-[(6-hydroxy-2-hexynyl)oxy]phenyl}sulfonyl)-2,2-dimethyl-3-thiomorpholine carboxamide], the inhibition at 3 µM under setting [1] turned out to be 51%.

`CC#CCOc1ccc(S(=O)(=O)N(C)C(C(=O)NO)C(C)(C)SCCN2CCOCC2)cc1` (stereo not drawn) [Example 140, 2-({[4-(2-Butynyloxy)phenyl]sulfonyl)(methyl)amino]-N-hydroxy-3 methyl-3-[(2(4-morpholinylethyl)sulfanyl]-butanamide hydrochloride]: the inhibition at 3 µM under setting [1] stood at 80%.

For the compound `CC#CCOc1ccc(S(=O)(=O)N2CC[S+]([O-])C(C)(C)C2C(=O)NO)cc1` (single isomer, unassigned) [Example 256], the inhibition at 3 µM under setting [1] is 92%.

Regarding `CC1(C)SCCN(S(=O)(=O)c2ccc(OCC#CCCO)cc2)C1C(=O)NO` (stereo not drawn) [Example 244, N-Hydroxy-4-({4-[(5-hydroxy-2-pentynyl)oxy]phenyl}sulfonyl)-2,2-dimethyl-3-thiomorpholine carboxamide], the inhibition at 3 µM under setting [1] amounted to 57%.

In the case of `CC#CCOc1ccc(S(=O)(=O)N(C)C(C(=O)NO)c2ccc(OCCN3CCNCC3)cc2)cc1` (stereo not drawn) [Example 186, 2-[{[4-(2-butynyloxy)phenyl]sulfonyl}(methyl)amino]-N-hydroxy-2-{4-[2-(1-piperazinyl)ethoxy]phenyl}acetamide], the inhibition at 3 µM under setting [1] turned out to be 93%.

As to `CC#CCOc1ccc(S(=O)(=O)N2CSC(C)(C)[C@@H]2C(=O)NO)cc1` [Example 286, (4S)-3-{(4-(2-Butynyloxy)phenyl]sulfonyl}-N-hydroxy-5,5-dimethyl-1,3-thiazolidine-4-carboxamide], the inhibition at 3 µM under setting [2] is 73%.

For `CC1(C)SCCN(S(=O)(=O)c2ccc(OCC#CCCN)cc2)C1C(=O)NO` (stereo not drawn) [Example 246, 4-({4-[(5-Amino-2-pentynyl)oxy]phenyl}sulfonyl)-N-hydroxy-2,2-dimethyl-3-thiomorpholine carboxamide], the inhibition at 3 µM under setting [1] was 4%.

`CC#CCOc1ccc(S(=O)(=O)N[C@@H](C(=O)NO)c2ccc(OCCNC(C)=O)cc2)cc1` [Example 201, (2R)-2-{4-[2-(Acetylamino)ethoxy]phenyl}-2-({[4-(2-butynyloxy)phenyl]sulfonyl}amino)-N-hydroxyethanamide]: under setting [1], the inhibition at 3 µM was 77%.

Consider `CC1(C)SCCN(S(=O)(=O)c2ccc(OCC#CCCCCO)cc2)[C@H]1C(=O)NO` [Example 269, (3S)-N-Hydroxy-4-({4-[(7-hydroxy-2-heptynyl)oxy]phenyl}sulfonyl)-2,2-dimethyl-3-thiomorpholinecarboxamide], for which, under setting [1], the inhibition at 3 µM was determined as 77%.

In the case of `CC#CCOc1ccc(S(=O)(=O)N(CC#CCN2CCN(C)CC2)C(C)C(=O)NO)cc1` (stereo not drawn) [Example 135, 2-{[[4-(2-butynyloxy)phenyl]sulfonyl][4-(4-methyl-1-piperazinyl)-2-butynylamino]}-N-hydroxypropanamide], the inhibition at 3 µM under setting [1] stood at 76%.

Consider `CC#CCOc1ccc(S(=O)(=O)N(C)C(C(=O)NO)c2ccc(OCCN3CCCC3=O)cc2)cc1` (stereo not drawn) [Example 184, 2-[{[4-(2-Butynyloxy)phenyl]sulfonyl}(methyl)amino]-N-hydroxy-2-{4-[2-(2-oxo-1-pyrrolidinyl)ethoxy]phenyl}acetamide], for which the inhibition at 3 µM under setting [1] was found to be 94%.

Turning to `CC#CCOc1ccc(S(=O)(=O)N2CCN(C(=O)OC(C)(C)C)CC2C(=O)NO)cc1` (stereo not drawn) [Example 58, 4-(4-But-2-ynyloxy-benzenesulfonyl)-3-hydroxycarbamoyl-piperazine-1-carboxylic acid tert-butyl ester], under setting [1], the inhibition at 3 µM came to 79%.

For the compound `CC#CCOc1ccc(S(=O)(=O)N2CCSC3(CCN(Cc4ccccc4)CC3)C2C(=O)NO)cc1` (stereo not drawn) [Example 241, 9-Benzyl-4-{[4-(2-butynyloxy)phenyl]sulfonyl}-N-hydroxy-1-thia-4,9-diazaspiro[5.5]undecane-5-carboxamide], under setting [1], the inhibition at 3 µM stood at 94%.

For `CC#CCOc1ccc(S(=O)(=O)N[C@@H](C(=O)NO)c2ccc(OCCN)cc2)cc1` [Example 200, (2R)-2-[4-(2-Aminoethoxy)phenyl]-2-({[4-(2-butynyloxy)phenyl]sulfonyl}amino)-N-hydroxyethanamide], under setting [1], the inhibition at 3 µM is 78%.

In the case of `CC1(C)SCCN(S(=O)(=O)c2ccc(OCC#CCO)cc2)[C@H]1C(=O)NO` [Example 260, (3S)-N-Hydroxy-4-({4-[(4-hydroxy-2-butynyl)oxy]phenyl}sulfonyl)-2,2-dimethyl-3-thiomorpholine carboxamide], under “THP-1, read-out: THP % inhibition @ 3 µM”, the inhibition at 3 µM was 95%.

Regarding `CC#CCOc1ccc(S(=O)(=O)N2CCN(C(=O)OCc3ccccc3)CC2C(=O)NO)cc1` (stereo not drawn) [Example 219, Benzyl 4-{[4-(2-butynyloxy)phenyl]sulfonyl}-3-[(hydroxyamino)carbonyl]-1-piperazinecarboxylate], under setting [1], the inhibition at 3 µM was found to be 87%.

For the compound `CC#CCOc1ccc(S(=O)(=O)N2CCN(C(=O)OC)CC2C(=O)NO)cc1` (stereo not drawn) [Example 228, 4-(4-But-2-ynyloxy-benzenesulfonyl)-3-hydroxycarbamoyl-piperazine-1-carboxylic acid methyl ester], under setting [1], the inhibition at 3 µM stood at 81%.

With `CC(C)(C)OC(=O)NCCCC#CCOc1ccc(S(=O)(=O)N2CCSC(C)(C)[C@@H]2C(=O)NO)cc1` [Example 250, tert-Butyl 6-[4-({(3S)-3-[(hydroxyamino)carbonyl]-2,2-dimethylthiomorpholinyl}sulfonyl)phenoxy]-4-hexynylcarbamate], the inhibition at 3 µM under setting [1] came to 27%.

Consider `CC1(C)SCCN(S(=O)(=O)c2ccc(OCC#CCF)cc2)[C@H]1C(=O)NO` [Example 264, (3S)-4-({4-[(4-Fluoro-2-butynyl)oxy]phenyl}sulfonyl)-N-hydroxy-2,2-dimethyl-3-thiomorpholine carboxamide], for which the inhibition at 3 µM under setting [1] is 94%.

Take `CC#CCOc1ccc(S(=O)(=O)N(C)C(C(=O)NO)C(C)(C)SCCCN2CCN(C)CC2)cc1` (stereo not drawn) [Example 147, 2-({[4-(2-Butynyloxy)phenyl]sulfonyl)(methyl)amino]-N-hydroxy-3-methyl-3-{[2(4-methyl-1-ethyl-1-piperazinyl)propyl]sulfanyl}butanamide]: the inhibition at 3 µM under setting [1] came to 89%.

As to `CC#CCOc1ccc(S(=O)(=O)N(C)C(C(=O)NO)c2ccc(OCCN3CCCC3)cc2)cc1` (stereo not drawn) [Example 183, 2-[{[4-(2-Butynyloxy)phenyl]sulfonyl}(methyl)amino]-N-hydroxy-2-{4-[2-(1-pyrrolidinyl)ethoxy]phenyl}acetamide], under setting [1], the inhibition at 3 µM stood at 93%.

For the compound `CC#CCOc1ccc(S(=O)(=O)N(Cc2ccc(OCCN3CCCCC3)cc2)C(C(=O)NO)C2CCCCC2)cc1` (stereo not drawn) [Example 117, 2-{(4-But-2-ynyloxy-benzenesulfonyl)-[4-(2-piperidin-1-yl-ethoxy)-benzyl]-amino}-2-cyclohexyl-N-hydroxy-acetamide], the inhibition at 3 µM under setting [1] was found to be 88%.

As to `CC#CCOc1ccc(S(=O)(=O)N(C)CC(=O)NO)cn1` [Example 131, 2-[(6-But-2-ynyloxy-pyridine-3-sulfonyl)-methyl-amino]-N-hydroxy-acetamide], under setting [1], the inhibition at 3 µM came to 18%.

Regarding `CC#CCOc1ccc(S(=O)(=O)N(C)C(C(=O)NO)C(C)(C)SCCN2CCN(C)CC2)cc1` (stereo not drawn) [Example 141], under setting [1], the inhibition at 3 µM turned out to be 86%.

Regarding `CC#CCOc1ccc(S(=O)(=O)N2CCN(C(=O)N3CCOCC3)CC2C(=O)NO)cc1` (stereo not drawn) [Example 215, 1-(4-But-2-ynyloxy-benzenesulfonyl)-4-(morpholine-4-carbonyl)-piperazine-2-carboxylic acid hydroxyamide], the inhibition at 3 µM under setting [1] came out at 51%.

Values taken from EP1144368B1, “ACETYLENIC ALPHA-AMINO ACID-BASED SULFONAMIDE HYDROXAMIC ACID TACE INHIBITORS” (priority 1999, dated 2000).
